Experimental data taken from ChEMBL document CHEMBL1158974, “Iridoids: a new class of leishmanicidal agents from Nyctanthes arbortristis” (J Nat Prod, 1991).
Activity calls are given as the source filed them. No cut-off for these calls is given here.

Assays:
Leishmania donovani [1] = test: Antileishmanial activity against Leishmania donovani HOM/IN/80/Dd8 amastigotes infected in Sigmodon hispidus peritoneal macrophages assessed as reduction in infected macrophages at 30 ug/ml; format: functional; details: for inhibition at 30 µg/mL: HOM/IN/80/Dd8, in Sigmodon hispidus
Leishmania donovani [2] = test: Antileishmanial activity against Leishmania donovani HOM/IN/80/Dd8 amastigotes infected in Sigmodon hispidus peritoneal macrophages assessed as reduction in average number of amastigotes per infected macrophage at 30 ug/ml; format: functional; details: for inhibition at 30 µg/mL: HOM/IN/80/Dd8, in Sigmodon hispidus
[3] = Cytotoxicity against Sigmodon hispidus peritoneal macrophages at 60 ug/ml; format: cell-based; details: peritoneal macrophage cell
Leishmania donovani [4] = test: Antileishmanial activity against Leishmania donovani HOM/IN/80/Dd8 amastigotes infected in Mesocricetus auratus at 10 mg/kg, ip administered daily for 5 days measured after 7 days; format: functional; details: for inhibition in vivo at 10 mg/kg: HOM/IN/80/Dd8, in Mesocricetus auratus, route intraperitoneal
Leishmania donovani [5] = test: Antileishmanial activity against Leishmania donovani HOM/IN/80/Dd8 amastigotes infected in Mesocricetus auratus assessed as survival days at 10 mg/kg, ip administered daily for 5 days; format: functional
Leishmania donovani [6] = test: Antileishmanial activity against Leishmania donovani HOM/IN/80/Dd8 amastigotes infected in Sigmodon hispidus peritoneal macrophages assessed as reduction in infected macrophages at 100 ug/ml; format: functional
Leishmania donovani [7] = test: Antileishmanial activity against Leishmania donovani HOM/IN/80/Dd8 amastigotes infected in Sigmodon hispidus peritoneal macrophages assessed as reduction in average number of amastigotes per infected macrophage at 100 ug/ml; format: functional
Leishmania donovani [8] = test: Antileishmanial activity against Leishmania donovani HOM/IN/80/Dd8 amastigotes infected in Mesocricetus auratus at 10 mg/kg, ip administered daily for 5 days measured after 28 days; format: functional
Leishmania donovani [9] = test: Antileishmanial activity against Leishmania donovani HOM/IN/80/Dd8 amastigotes infected in Mesocricetus auratus at 100 mg/kg, po administered daily for 5 days; format: functional; details: HOM/IN/80/Dd8, in Mesocricetus auratus, 120 h
Leishmania donovani [10] = test: Antileishmanial activity against Leishmania donovani HOM/IN/80/Dd8 amastigotes infected in Sigmodon hispidus peritoneal macrophages assessed as reduction in infected macrophages at 60 ug/ml; format: functional; details: HOM/IN/80/Dd8, in Sigmodon hispidus
Leishmania donovani [11] = test: Antileishmanial activity against Leishmania donovani HOM/IN/80/Dd8 amastigotes infected in Sigmodon hispidus peritoneal macrophages assessed as reduction in average number of amastigotes per infected macrophage at 60 ug/ml; format: functional; details: HOM/IN/80/Dd8, in Sigmodon hispidus
Leishmania donovani [12] = test: Antileishmanial activity against Leishmania donovani HOM/IN/80/Dd8 amastigotes assessed as minimum effective dose; format: functional, organism-based
[13] = HOM/IN/80/Dd8, in Sigmodon hispidus

Compound	inhibition at 30 µg/mL (Leishmania donovani [1]) [%]	inhibition at 30 µg/mL (Leishmania donovani [2]) [%]	Activity [3]	inhibition in vivo at 10 mg/kg (Leishmania donovani [4]) [%]	Survival (Leishmania donovani [5]; route intraperitoneal) [days]	inhibition (Leishmania donovani [4])	inhibition (Leishmania donovani [8])	also measured
COC(=O)C1=CO[C@@H](O[C@@H]2O[C@H](CO)[C@@H](O)[C@H](O)[C@H]2O)[C@@H]2[C@@H](C)[C@@H](O)[C@@H](O)[C@H]12	42.2	65.8	Toxic	30.8	<28			
COC(=O)C1=CO[C@@H](O[C@@H]2O[C@H](CO)[C@@H](O)[C@H](O)[C@H]2O)[C@@H]2[C@@H](C)[C@@H](OC(=O)/C=C/c3ccc(OC)cc3)[C@@H](O)[C@H]12 [ARBORTRISTOSIDE A]	7.13	45.8		18.2	38			inhibition at 100 µg/mL (Leishmania donovani [6]; [13]): 30.2%; inhibition at 100 µg/mL (Leishmania donovani [7]; [13]): 64.6%; inhibition in vivo at 10 mg/kg (Leishmania donovani [8]; HOM/IN/80/Dd8, in Mesocricetus auratus, route intraperitoneal): 79.7%; inhibition in vivo at 100 mg/kg (Leishmania donovani [9]): 57%
COC(=O)C1=CO[C@@H](O[C@@H]2O[C@H](CO)[C@@H](O)[C@H](O)[C@H]2O)[C@@H]2[C@@H](CO)[C@@H](OC(=O)/C=C/c3ccc(O)c(O)c3)[C@@H](O)[C@H]12 [ARBORTRISTOSIDE B]	28.1	25.1			59	inactive	inactive	inhibition at 60 µg/mL (Leishmania donovani [10]): 41.7%; inhibition at 60 µg/mL (Leishmania donovani [11]): 47.3%
COC(=O)C1=CO[C@@H](O[C@@H]2O[C@H](CO)[C@@H](O)[C@H](O)[C@H]2O)[C@@H]2[C@@H](C)[C@@H](OC(=O)/C=C/c3ccc(O)cc3)[C@@H](O)[C@H]12 [ARBORTRISTOSIDE C]	39.9	67.4	Toxic		<28	inactive		
sodium stibogluconate						71.9%	93.5%	inhibition (Leishmania donovani [1]): 80%; inhibition (Leishmania donovani [6]): 100%; inhibition (Leishmania donovani [2]): 80%; inhibition (Leishmania donovani [7]): 100%; MED (Leishmania donovani [12]): 10 mg/kg; Survival (Leishmania donovani [5]): < 30 days
